# Experimental data reported in ChEMBL document CHEMBL1743201, “Casarett and Doull's Toxicology The Basic Science of Poisons, 7th edition” (2008).
# Columns and labels:
# Format in all cases: ADME
# Sulfotransferase 1E1 = molecular target: T1, Sulfotransferase 1E1 (Homo sapiens, UniProt P49888); assay: Major substrate of human cytosolic sulfotransferase SULT1E1
# T1 sequence (P49888 whole entry): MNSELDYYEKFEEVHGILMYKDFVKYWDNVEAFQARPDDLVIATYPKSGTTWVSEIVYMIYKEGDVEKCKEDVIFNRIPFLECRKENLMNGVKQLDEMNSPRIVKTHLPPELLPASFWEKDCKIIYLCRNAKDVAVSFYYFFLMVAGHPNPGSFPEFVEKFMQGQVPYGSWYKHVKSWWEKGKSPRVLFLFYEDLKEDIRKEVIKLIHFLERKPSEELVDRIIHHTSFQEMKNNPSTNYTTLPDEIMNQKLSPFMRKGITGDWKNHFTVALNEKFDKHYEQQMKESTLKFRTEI
# [1] = molecular target: T2, UDP-glucuronosyltransferase 1A7 (Homo sapiens, UniProt Q9HAW7); assay: Substrate of human UDP-glucuronosyltransferase UGT1A7
# T2 sequence (Q9HAW7 whole entry): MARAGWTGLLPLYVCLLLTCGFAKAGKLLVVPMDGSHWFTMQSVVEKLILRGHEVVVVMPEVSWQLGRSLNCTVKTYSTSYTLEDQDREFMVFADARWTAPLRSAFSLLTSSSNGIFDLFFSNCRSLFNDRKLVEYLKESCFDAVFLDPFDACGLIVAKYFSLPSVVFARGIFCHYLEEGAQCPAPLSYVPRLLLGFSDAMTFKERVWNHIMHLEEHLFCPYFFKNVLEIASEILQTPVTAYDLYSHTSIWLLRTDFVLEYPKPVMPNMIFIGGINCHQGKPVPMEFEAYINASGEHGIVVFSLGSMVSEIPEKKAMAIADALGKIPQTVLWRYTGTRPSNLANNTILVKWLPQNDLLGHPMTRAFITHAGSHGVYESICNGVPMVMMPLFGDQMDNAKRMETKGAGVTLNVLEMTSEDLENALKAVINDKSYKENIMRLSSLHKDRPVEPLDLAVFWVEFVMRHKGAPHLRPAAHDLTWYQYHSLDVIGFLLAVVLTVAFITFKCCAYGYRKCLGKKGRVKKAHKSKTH
# Cytochrome P450 1A2 [2] = molecular target: T3, Cytochrome P450 1A2 (Homo sapiens, UniProt P05177); assay: Clinically relevant inducers of human liver microsomal P450 enzymes, isoform CYP1A2; conditions: microsomes
# T3 sequence (P05177 whole entry): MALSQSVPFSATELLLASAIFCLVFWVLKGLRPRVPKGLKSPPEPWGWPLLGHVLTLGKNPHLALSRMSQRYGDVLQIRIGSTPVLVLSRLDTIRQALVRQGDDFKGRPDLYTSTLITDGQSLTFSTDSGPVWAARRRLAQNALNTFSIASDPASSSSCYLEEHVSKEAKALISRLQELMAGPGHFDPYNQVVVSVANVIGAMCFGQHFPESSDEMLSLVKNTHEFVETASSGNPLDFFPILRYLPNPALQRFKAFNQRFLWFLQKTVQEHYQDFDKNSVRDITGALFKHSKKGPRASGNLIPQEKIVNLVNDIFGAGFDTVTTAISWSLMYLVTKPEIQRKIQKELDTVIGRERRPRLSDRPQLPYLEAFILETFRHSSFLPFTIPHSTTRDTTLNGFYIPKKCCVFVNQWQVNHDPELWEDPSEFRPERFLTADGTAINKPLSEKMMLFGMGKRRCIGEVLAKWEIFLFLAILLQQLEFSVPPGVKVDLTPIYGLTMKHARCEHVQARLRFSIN
# [3] = molecular target: T4, UDP-glucuronosyltransferase 1A6 (Homo sapiens, UniProt P19224); assay: Substrate of human UDP-glucuronosyltransferase UGT1A6
# T4 sequence (P19224 whole entry): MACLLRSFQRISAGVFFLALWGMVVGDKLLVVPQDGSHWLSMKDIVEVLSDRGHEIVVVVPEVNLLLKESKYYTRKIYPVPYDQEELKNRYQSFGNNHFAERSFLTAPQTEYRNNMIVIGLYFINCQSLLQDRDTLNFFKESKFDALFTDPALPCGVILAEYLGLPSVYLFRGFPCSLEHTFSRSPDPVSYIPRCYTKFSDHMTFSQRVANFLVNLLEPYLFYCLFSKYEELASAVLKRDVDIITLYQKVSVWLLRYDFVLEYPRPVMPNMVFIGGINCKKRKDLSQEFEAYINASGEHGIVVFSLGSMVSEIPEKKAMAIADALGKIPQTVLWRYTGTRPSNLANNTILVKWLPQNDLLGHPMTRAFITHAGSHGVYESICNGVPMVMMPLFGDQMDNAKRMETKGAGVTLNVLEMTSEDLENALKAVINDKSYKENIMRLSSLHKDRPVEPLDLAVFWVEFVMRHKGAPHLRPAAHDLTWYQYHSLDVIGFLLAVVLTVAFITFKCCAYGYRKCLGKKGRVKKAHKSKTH
# [4] = molecular target: T5, UDP-glucuronosyltransferase 2B15 (Homo sapiens, UniProt P54855); assay: Substrate of human UDP-glucuronosyltransferase UGT2B15
# T5 sequence (P54855 whole entry): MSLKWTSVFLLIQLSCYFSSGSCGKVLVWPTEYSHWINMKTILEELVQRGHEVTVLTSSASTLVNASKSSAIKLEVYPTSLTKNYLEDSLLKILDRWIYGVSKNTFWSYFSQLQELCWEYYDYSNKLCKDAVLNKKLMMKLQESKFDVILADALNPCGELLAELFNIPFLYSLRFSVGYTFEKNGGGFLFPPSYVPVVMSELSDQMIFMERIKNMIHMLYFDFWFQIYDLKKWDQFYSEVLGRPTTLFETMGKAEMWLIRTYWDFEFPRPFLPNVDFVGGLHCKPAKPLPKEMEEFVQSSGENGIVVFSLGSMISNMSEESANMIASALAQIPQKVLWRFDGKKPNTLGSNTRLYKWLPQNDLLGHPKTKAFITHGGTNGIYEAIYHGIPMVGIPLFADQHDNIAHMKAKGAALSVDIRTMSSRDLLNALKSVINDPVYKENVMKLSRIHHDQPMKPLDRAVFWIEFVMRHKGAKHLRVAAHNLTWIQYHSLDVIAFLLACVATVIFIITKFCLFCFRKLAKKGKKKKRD
# [5] = molecular target: T6, UDP-glucuronosyltransferase 1A4 (Homo sapiens, UniProt P22310); assay: Substrate of human UDP-glucuronosyltransferase UGT1A4
# T6 sequence (P22310 whole entry): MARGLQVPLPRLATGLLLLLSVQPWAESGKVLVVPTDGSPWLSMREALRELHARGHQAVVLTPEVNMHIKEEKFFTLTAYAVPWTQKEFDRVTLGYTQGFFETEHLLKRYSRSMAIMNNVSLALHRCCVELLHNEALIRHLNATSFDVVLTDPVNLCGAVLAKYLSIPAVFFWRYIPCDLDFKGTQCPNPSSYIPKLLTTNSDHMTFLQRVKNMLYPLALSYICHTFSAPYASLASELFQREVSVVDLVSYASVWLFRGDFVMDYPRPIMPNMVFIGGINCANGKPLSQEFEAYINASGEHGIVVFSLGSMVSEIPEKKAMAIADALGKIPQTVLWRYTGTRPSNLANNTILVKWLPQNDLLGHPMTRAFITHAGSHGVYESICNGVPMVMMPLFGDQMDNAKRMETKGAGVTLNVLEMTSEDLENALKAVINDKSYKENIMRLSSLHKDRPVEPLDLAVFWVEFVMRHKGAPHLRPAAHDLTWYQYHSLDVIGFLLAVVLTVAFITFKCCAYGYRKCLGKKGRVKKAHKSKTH
# [6] = molecular target: T7, UDP-glucuronosyltransferase 2B4 (Homo sapiens, UniProt P06133); assay: Substrate of human UDP-glucuronosyltransferase UGT2B4
# T7 sequence (P06133 whole entry): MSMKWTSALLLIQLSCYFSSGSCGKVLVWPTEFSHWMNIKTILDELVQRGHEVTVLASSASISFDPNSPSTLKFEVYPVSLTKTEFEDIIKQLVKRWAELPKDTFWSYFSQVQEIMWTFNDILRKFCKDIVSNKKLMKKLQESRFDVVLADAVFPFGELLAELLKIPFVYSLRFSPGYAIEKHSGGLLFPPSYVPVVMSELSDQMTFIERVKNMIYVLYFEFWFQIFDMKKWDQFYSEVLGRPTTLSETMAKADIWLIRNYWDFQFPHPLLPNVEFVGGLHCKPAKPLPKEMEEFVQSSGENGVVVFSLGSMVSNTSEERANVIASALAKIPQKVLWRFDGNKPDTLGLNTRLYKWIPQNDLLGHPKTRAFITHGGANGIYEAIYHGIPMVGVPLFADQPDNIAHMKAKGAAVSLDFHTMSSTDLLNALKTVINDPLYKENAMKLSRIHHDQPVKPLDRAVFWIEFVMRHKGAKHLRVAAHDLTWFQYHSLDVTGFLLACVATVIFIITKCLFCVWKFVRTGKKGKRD
# Cytochrome P450 1A2 [7] = molecular target: T3, Cytochrome P450 1A2; assay: Clinically relevant inhibitors of human liver microsomal P450 enzymes, isoform CYP1A2; conditions: microsomes
# Cytochrome P450 2D6 = Cytochrome P450 2D6 (Homo sapiens, UniProt P10635); assay: Clinically relevant inhibitors of human liver microsomal P450 enzymes, isoform CYP2D6; conditions: microsomes
# Cytochrome P450 2C19 = Cytochrome P450 2C19 (Homo sapiens, UniProt P33261); assay: Clinically relevant substrates of human liver microsomal P450 enzymes, isoform CYP2C19; conditions: microsomes
# [8] = molecular target: T8, UDP-glucuronosyltransferase 1A8 (Homo sapiens, UniProt Q9HAW9); assay: Substrate of human UDP-glucuronosyltransferase UGT1A8
# T8 sequence (Q9HAW9 whole entry): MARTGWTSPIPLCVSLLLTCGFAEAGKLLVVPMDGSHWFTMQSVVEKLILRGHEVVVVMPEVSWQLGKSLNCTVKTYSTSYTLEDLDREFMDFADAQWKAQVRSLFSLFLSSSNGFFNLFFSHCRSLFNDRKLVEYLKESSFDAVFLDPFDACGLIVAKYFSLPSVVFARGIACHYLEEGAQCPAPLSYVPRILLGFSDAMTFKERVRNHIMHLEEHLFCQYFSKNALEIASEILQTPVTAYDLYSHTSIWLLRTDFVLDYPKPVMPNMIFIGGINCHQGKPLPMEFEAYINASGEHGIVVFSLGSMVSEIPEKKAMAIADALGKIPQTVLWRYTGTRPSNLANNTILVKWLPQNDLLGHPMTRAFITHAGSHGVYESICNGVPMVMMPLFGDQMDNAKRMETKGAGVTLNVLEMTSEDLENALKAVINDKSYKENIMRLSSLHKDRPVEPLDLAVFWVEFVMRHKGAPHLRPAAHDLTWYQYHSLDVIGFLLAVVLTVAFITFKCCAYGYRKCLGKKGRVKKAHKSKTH
# [9] = molecular target: T9, UDP-glucuronosyltransferase 1A10 (Homo sapiens, UniProt Q9HAW8); assay: Substrate of human UDP-glucuronosyltransferase UGT1A10
# T9 sequence (Q9HAW8 whole entry): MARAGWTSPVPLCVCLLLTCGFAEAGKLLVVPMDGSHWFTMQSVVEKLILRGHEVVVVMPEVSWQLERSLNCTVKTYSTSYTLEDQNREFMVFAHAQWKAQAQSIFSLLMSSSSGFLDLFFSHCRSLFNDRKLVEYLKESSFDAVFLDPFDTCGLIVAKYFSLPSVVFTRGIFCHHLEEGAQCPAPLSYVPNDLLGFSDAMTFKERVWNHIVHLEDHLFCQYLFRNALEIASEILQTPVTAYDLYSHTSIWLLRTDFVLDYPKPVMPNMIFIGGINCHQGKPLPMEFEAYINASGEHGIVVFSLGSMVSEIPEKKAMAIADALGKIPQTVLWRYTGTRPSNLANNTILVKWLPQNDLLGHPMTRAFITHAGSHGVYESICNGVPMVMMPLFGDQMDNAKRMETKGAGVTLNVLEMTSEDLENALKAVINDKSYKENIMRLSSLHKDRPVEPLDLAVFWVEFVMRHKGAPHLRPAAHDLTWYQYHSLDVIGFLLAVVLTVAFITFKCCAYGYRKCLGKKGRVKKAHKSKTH
# Cytochrome P450 2D6, sequence (P10635 whole entry, canonical isoform): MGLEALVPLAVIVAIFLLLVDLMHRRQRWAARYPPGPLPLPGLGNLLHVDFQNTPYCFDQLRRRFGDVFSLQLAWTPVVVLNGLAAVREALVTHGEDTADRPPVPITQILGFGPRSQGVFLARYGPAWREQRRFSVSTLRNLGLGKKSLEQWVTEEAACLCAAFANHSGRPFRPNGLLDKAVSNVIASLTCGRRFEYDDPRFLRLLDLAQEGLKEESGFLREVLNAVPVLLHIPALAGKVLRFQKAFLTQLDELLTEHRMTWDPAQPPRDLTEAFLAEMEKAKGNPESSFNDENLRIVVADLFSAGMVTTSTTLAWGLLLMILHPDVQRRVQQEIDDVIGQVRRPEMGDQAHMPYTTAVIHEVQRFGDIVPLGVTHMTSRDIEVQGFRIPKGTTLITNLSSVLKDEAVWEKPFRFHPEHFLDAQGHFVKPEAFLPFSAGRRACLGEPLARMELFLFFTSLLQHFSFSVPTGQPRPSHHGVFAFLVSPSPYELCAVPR
# Cytochrome P450 2C19, sequence (P33261 whole entry, canonical isoform): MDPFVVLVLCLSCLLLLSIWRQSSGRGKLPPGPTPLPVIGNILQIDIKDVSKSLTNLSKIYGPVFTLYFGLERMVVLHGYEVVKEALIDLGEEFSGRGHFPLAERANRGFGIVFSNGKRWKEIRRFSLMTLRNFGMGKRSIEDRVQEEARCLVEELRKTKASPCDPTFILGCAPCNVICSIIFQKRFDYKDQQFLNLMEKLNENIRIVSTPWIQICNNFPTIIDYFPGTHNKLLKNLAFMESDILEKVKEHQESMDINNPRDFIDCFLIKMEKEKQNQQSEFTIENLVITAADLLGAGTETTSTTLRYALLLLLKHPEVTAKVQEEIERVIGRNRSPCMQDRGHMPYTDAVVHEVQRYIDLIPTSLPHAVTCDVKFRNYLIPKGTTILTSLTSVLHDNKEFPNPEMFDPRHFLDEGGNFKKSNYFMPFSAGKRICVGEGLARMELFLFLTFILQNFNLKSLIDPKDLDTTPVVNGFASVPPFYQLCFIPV
structure (smiles),measurement,setting,value
C[C@]12CC[C@@H]3c4ccc(O)c(O)c4CC[C@H]3[C@@H]1CCC2=O,Activity,Sulfotransferase 1E1,Substrate
same,Activity,[1],Substrate
Oc1ccc(-c2ccccc2)cc1,Activity,[1],Substrate
Cc1ccc2cc3c(ccc4ccccc43)c3c2c1CC3 [3-METHYLCHOLANTHRENE],Activity,Cytochrome P450 1A2 [2],Inducer
CCc1c2c(nc3ccc(O)cc13)-c1cc3c(c(=O)n1C2)COC(=O)[C@]3(O)CC [7-ETHYL-10-HYDROXYCAMPTOTHECIN],Activity,[3],Substrate
same,Activity,[1],Substrate
same,Activity,[4],Substrate
CN(C)CCC=C1c2ccccc2CCc2ccccc21 [AMITRIPTYLINE],Activity,[5],Substrate
C[C@]12CC[C@@H](O)C[C@@H]1CC[C@@H]1[C@@H]2CC[C@]2(C)C(=O)CC[C@@H]12 [ANDROSTERONE],Activity,[6],Substrate
O=c1cc(-c2ccccc2)oc2ccc3ccccc3c12 [BETA-NAPHTHOFLAVONE],Activity,Cytochrome P450 1A2 [2],Inducer
CN/C(=N/CCSCc1nc[nH]c1C)NC#N [CIMETIDINE],Activity,Cytochrome P450 1A2 [7],Inhibitor
same,Activity,Cytochrome P450 2D6,Inhibitor
COc1ccc2c3c1O[C@H]1[C@@H](O)C=C[C@H]4[C@@H](C2)N(C)CC[C@@]341 [CODEINE],Activity,[6],Substrate
CN(C)CCC=C1c2ccccc2C=Cc2ccccc21 [CYCLOBENZAPRINE],Activity,[5],Substrate
Nc1nnc(-c2cccc(Cl)c2Cl)c(N)n1 [LAMOTRIGINE],Activity,[5],Substrate
Cc1c(OCC(F)(F)F)ccnc1C[S+]([O-])c1nc2ccccc2[nH]1 (stereo unspecified) [LANSOPRAZOLE],Activity,Cytochrome P450 2C19,Substrate
same,Activity,Cytochrome P450 1A2 [2],Inducer
COc1c(C)c2c(c(O)c1C/C=C(\C)CCC(=O)O)C(=O)OC2 [MYCOPHENOLIC ACID],Activity,[1],Substrate
same,Activity,[8],Substrate
same,Activity,[9],Substrate
CCCCCCCCOC(=O)c1cc(O)c(O)c(O)c1 [OCTYL_GALLATE],Activity,[1],Substrate
Cc1cc2c(s1)Nc1ccccc1N=C2N1CCN(C)CC1 [OLANZAPINE],Activity,[5],Substrate
Fc1ccc([C@@H]2CCNC[C@H]2COc2ccc3c(c2)OCO3)cc1 [PAROXETINE],Activity,Cytochrome P450 2D6,Inhibitor
CN[C@H]1CC[C@@H](c2ccc(Cl)c(Cl)c2)c2ccccc21 [SERTRALINE],Activity,Cytochrome P450 2D6,Inhibitor
CN(C/C=C/C#CC(C)(C)C)Cc1cccc2ccccc12 [TERBINAFINE],Activity,Cytochrome P450 2D6,Inhibitor
CN1CCN(CCCN2c3ccccc3Sc3ccc(C(F)(F)F)cc32)CC1 [TRIFLUOPERAZINE],Activity,[5],Substrate
